Values of other authors in article PMC8900053, “Selumetinib in combination with dexamethasone for the treatment of relapsed/refractory RAS-pathway mutated paediatric and adult acute lymphoblastic leukaemia (SeluDex): study protocol for an international, parallel-group, dose-finding with expansion phase I/II trial” (BMJ Open, 2022).

Key:
[1] = human, in vivo
[2] = early information from clinical studies
[3] = common side effect of selumetinib

Chance that blurred vision may affect daily living (blurred vision mild or moderate in all reported previous cases) | Swelling of the face or extremities (patients receiving selumetinib) | Skin rash cases that can be more serious and require treatment (share of skin rash cases, majority of events are mild) | Blood levels of selumetinib in people of Asian origin versus non-Asian subjects [2] | SMILES | Tolerability of pulsed dosing versus continuous dosing [1] | Being sick (people affected) [3] | Diarrhoea (people affected) [3] | Feeling sick (people affected) [3] | Feeling tired or weak (people affected) [3] | Shortness of breath (people affected) [3] | Skin rash, which may be itchy (people affected) [3] | Swelling of the hands or feet (people affected) [3] | Tolerability (more than 3,080 people have had the drug so far)
 |  |  |  | C[C@@H]1C[C@H]2[C@@H]3CCC4=CC(=O)C=C[C@]4(C)[C@@]3(F)[C@@H](O)C[C@]2(C)[C@@]1(O)C(=O)CO [dexamethasone] | better tolerated |  |  |  |  |  |  |  | 
about 5% | commonly reported | around 10% | higher | Cn1cnc2c(F)c(Nc3ccc(Br)cc3Cl)c(C(=O)NOCCO)cc21 [selumetinib] |  | ~30% | ~50% | ~50% | ~40% | ~20% | ~70% | ~30% | very well tolerated
